According to patent US20130158035A1, “[…] COMPOUNDS” (Brigham Young University, priority 2010, published 2013):

The molecules below were run on MDCK cells (assay: HGF-induced epithelial-mesenchymal transition / migration of MDCK cells on transwell filters (crystal violet densitometry)). Settings: Canis lupus familiaris, MDCK, 24 h, Table 3, 10 μM compound, then HGF, percentage like untreated controls (unstimulated cells = maximal effect, HGF only = nil).
Format: cell-based
Experimental: MDCK cells were seeded at confluency into the wells of a transwell filter in DMEM with 10% fetal bovine serum. Cells were cultured for 24 hours. Test compounds, dissolved in DMSO, were added to each test well to a 10 μM final concentration, and then hepatocyte growth factor (HGF) was then added. The MDCK cells were cultured for 24 hours. Concurrently, controls treated with and without HGF and with no test compounds were also prepared.
After post-HGF addition culturing, transwell filters were prepared by repeated washing using ice cold PBS. The cells were then fixed with paraformaldehyde (3.7%) on ice for 15 minutes to the filters. After fixation, the transwell filters were washed repeatedly with PBS followed by staining with crystal violet for 15 minutes. The transwell filters were washed again with distilled water.
The upper surface of the transwell filters were swabbed using a cotton-tipped probe. The filters were photographed using a gel documentation system. Densitometry measurements were made on the test samples and compared with control samples.

Row | Structure (SMILES) | inhibition at 10 µM
1 | NC(=O)c1ccccc1/N=C/c1cccc(O)c1 [Compound A-8] | 19.7%
2 | NC(=O)c1ccccc1/N=C/c1cccc(Cl)c1 [Compound A-9] | 96.4%
3 | COc1cccc(/C=N/c2ccccc2C(N)=O)c1O [Compound A-4] | 20.9%
4 | NC(=O)c1ccccc1/N=C/c1ccc(Br)s1 [Compound A-12] | 17.5%
5 | Cc1ccc(/C=N/c2ccccc2C(N)=O)s1 [Compound A-10] | 91.8%
6 | NC(=O)c1ccccc1/N=C/c1ccc(Cl)cc1Cl [Compound A-18] | < 5%
7 | CC(C)c1ccc(/C=N/c2ccccc2C(N)=O)cc1 [Compound A-14] | < 5%
8 | NC(=O)c1ccccc1/N=C/c1ccccc1[N+](=O)[O-] [Compound A-7] | 11.7%
9 | COc1cc(CNc2ccc(N3CCOCC3)cc2)cc(Br)c1OC [Compound A-23] | 31.9%
10 | COc1cc(CNc2ccc(N3CCOCC3)c(C(=O)O)c2)cc(Br)c1OC [Compound A-25] | < 5%
11 | NC(=O)c1ccccc1/N=C/c1ccccc1Cl [Compound A-2] | 75.7%

Same assay, conditions: Canis lupus familiaris, MDCK, 24 h, Table 4, 10 μM compound, then HGF, percentage like untreated controls (unstimulated cells = maximal effect, HGF only = nil)

Row | Structure (SMILES) | inhibition at 10 µM
12 | Cc1nc(NC(=O)c2cccc([N+](=O)[O-])c2)ccc1Br [Compound B-6] | 88.6%
13 | Cc1nc(NC(=O)COc2ccc([N+](=O)[O-])cc2)ccc1I [Compound B-2] | 96.9%
14 | CCOc1ccc(C(=O)Nc2ccc(I)cn2)cc1[N+](=O)[O-] [Compound B-10] | 69.9%
15 | CCOc1ccc(C(=O)Nc2cccc(C)n2)cc1[N+](=O)[O-] [Compound B-9] | 34.6%
16 | Cc1nc(NC(=O)c2ccc(N3CCCC3)c([N+](=O)[O-])c2)ccc1I [Compound B-5] | 44%

Same assay, conditions: Canis lupus familiaris, MDCK, 24 h, Table 5, 10 μM compound, then HGF, percentage like untreated controls (unstimulated cells = maximal effect, HGF only = nil)

Row | Structure (SMILES) | inhibition at 10 µM
17 | Cc1cc(C)cc(NS(=O)(=O)c2cccc([N+](=O)[O-])c2)c1 [Compound B-37] | 79.9%
18 | COc1cc(C(=O)Nc2ccc(Nc3ccccc3)cc2)cc(OC)c1OC [Compound B-27] | 13.7%
19 | COc1cc(C(=O)Nc2ccc(N3CCCC3)cc2)cc(OC)c1OC [Compound B-25] | 94.9%
20 | COc1cc(C(=O)Nc2ccc(N3CCN(C)CC3)cc2)cc(OC)c1OC [Compound B-28] | 13.7%
21 | COc1cc(OC)cc(C(=O)Nc2ccc(N3CCCC3)cc2)c1 [Compound B-29] | 26.4%
22 | CC(=O)c1cccc(NC(=O)c2ccc(-c3ccccc3)cc2)c1 [Compound B-16] | > 5%
23 | O=C(Nc1cccc([N+](=O)[O-])c1)c1ccc(-c2ccccc2)cc1 [Compound B-15] | 31.6%
24 | COc1cccc(C(=O)Nc2cccc(C(=O)c3ccccc3)c2)c1 [Compound B-40] | 93.1%
25 | Cc1cc(NC(=O)c2cccc([N+](=O)[O-])c2C)c(C)cc1I [Compound B-32] | 36.1%
26 | Cc1cc(C)c(NS(=O)(=O)c2cccc([N+](=O)[O-])c2)c(C)c1 [Compound B-38] | 100%
27 | CCC(=O)Nc1ccc(NC(=O)c2cc(OC)c(OC)c(OC)c2)cc1 [Compound B-23] | 29.4%

Same assay, conditions: Canis lupus familiaris, MDCK, 24 h, Table 6, 10 μM compound, then HGF, percentage like untreated controls (unstimulated cells = maximal effect, HGF only = nil)

Row | Structure (SMILES) | inhibition at 10 µM
28 | CCOC(=O)c1[nH]c2c(c1C)C(=O)CC(c1cccc(OC)c1)C2 (centres unmarked) [Compound C-1] | 96%
29 | Cc1ccc(COC(=O)c2[nH]c3c(c2C)C(=O)CC(c2cccs2)C3)cc1 (centres unmarked) [Compound C-6] | 48.4%
30 | Cc1c(C(=O)OC2CCCCC2)[nH]c2c1C(=O)CC(c1cccs1)C2 (centres unmarked) [Compound C-11] | < 5%
31 | CCCc1c(C(=O)OCC)[nH]c2c1C(=O)CC(c1cccs1)C2 (centres unmarked) [Compound C-9] | 15.3%

Same assay, conditions: Table 1; 10 μM compound, then HGF, 24 hours; percentage like untreated controls (unstimulated cells = maximal effect, HGF only = nil)

Row | Structure (SMILES) | Assay Value
32 | COc1cc2c(c(OC)c1)C(c1cc(OC)ccc1OC)CC(=O)N2 (centres unmarked) [Compound 22] | 8.8%
33 | COc1cccc(C2CC(=O)Nc3cc4c(cc32)CCC4)c1 (centres unmarked) [Compound 29] | 69.3%
34 | COc1cc2c(cc1OC)C(c1cccc(Cl)c1Cl)CC(=O)N2 (centres unmarked) [Compound 13] | >5%
35 | O=C1CC(c2cccc(O)c2)c2cc3c(cc2N1)OCCO3 (centres unmarked) [Compound 19] | 7.8%
36 | Cc1ccc(C)c(C2CC(=O)Nc3cc4c(cc32)OCCO4)c1 (centres unmarked) [Compound 14] | 8.8%
37 | CCOc1ccc(Br)cc1C1CC(=O)Nc2cc3c(cc21)OCCO3 (centres unmarked) [Compound 9] | 64.9%
38 | O=C1CC(c2cccc3ccccc23)c2cc3c(cc2N1)OCCO3 (centres unmarked) [Compound 7] | 17.1%

Same assay, conditions: Table 2; 10 μM compound, then HGF, 24 hours; percentage like untreated controls (unstimulated cells = maximal effect, HGF only = nil)

Row | Structure (SMILES) | Assay Value
39 | O=C1CC(c2ccccc2Br)c2cc3c(cc2N1)OCCO3 (centres unmarked) [Compound 36] | <5%
40 | Cc1ccc(C2CC(=O)Nc3cc4c(cc32)OCO4)cc1Br (centres unmarked) [Compound 89] | <5%
41 | O=C1CC(c2cccc(F)c2F)c2cc3c(cc2N1)OCO3 (centres unmarked) [Compound 75] | <5%
42 | COc1cc2c(cc1OC)C(c1cc(Br)c(OC)c(OC)c1)CC(=O)N2 (centres unmarked) [Compound 52] | <5%
43 | COc1ccccc1C1CC(=O)Nc2cc3c(cc21)OCCO3 (centres unmarked) [Compound 38] | <5%
44 | O=C1CC(c2ccccc2[N+](=O)[O-])c2cc3c(cc2N1)OCCO3 (centres unmarked) [Compound 67] | <5%
45 | O=C1CC(c2ccccc2C(F)(F)F)c2cc3c(cc2N1)CCC3 (centres unmarked) [Compound 94] | <5%
46 | COc1cc2c(cc1OC)C(c1cccc(Cl)c1)CC(=O)N2 (centres unmarked) [Compound 41] | <5%
47 | O=C1CC(c2cccc(F)c2)c2cc3c(cc2N1)OCCO3 (centres unmarked) [Compound 44] | <5%
48 | COc1cc2c(cc1OC)C(c1ccccc1OCc1ccccc1)CC(=O)N2 (centres unmarked) [Compound 42] | <5%
49 | COc1cc(C2CC(=O)Nc3cc4c(cc32)OCCO4)ccc1OCc1ccccc1 (centres unmarked) [Compound 70] | <5%
50 | COc1cc2c(cc1OC)C(c1ccccc1C)CC(=O)N2 (centres unmarked) [Compound 40] | <5%
51 | COc1cccc(C2CC(=O)Nc3cc4c(cc32)OCCO4)c1OC (centres unmarked) [Compound 46] | <5%
52 | COc1cc(Br)c(C2CC(=O)Nc3cc(OC)c(OC)cc32)cc1OC (centres unmarked) [Compound 48] | <5%
53 | O=C1CC(c2ccccc2OCc2ccccc2)c2cc3c(cc2N1)OCCO3 (centres unmarked) [Compound 56] | <5%
54 | COc1c(O)cccc1C1CC(=O)Nc2cc3c(cc21)OCO3 (centres unmarked) [Compound 90] | <5%
55 | COc1cc2c(cc1OC)C(c1ccc(Cl)cc1)CC(=O)N2 (centres unmarked) [Compound 55] | <5%
56 | O=C1CC(c2ccccc2F)c2cc3c(cc2N1)OCCO3 (centres unmarked) [Compound 69] | <5%
57 | O=C1CC(c2ccc(OC(F)(F)F)cc2)c2cc3c(cc2N1)OCCO3 (centres unmarked) [Compound 78] | <5%
58 | O=C1CC(c2ccccc2Cl)c2cc3c(cc2N1)OCCO3 (centres unmarked) [Compound 37] | <5%
59 | CCOc1ccccc1C1CC(=O)Nc2cc(C)c(C)cc21 (centres unmarked) [Compound 33] | <5%
60 | CC(C)Oc1ccccc1C1CC(=O)Nc2cc3c(cc21)OCCO3 (centres unmarked) [Compound 50] | <5%

Same assay, conditions: Table 3; 10 μM compound, then HGF, 24 hours; percentage like untreated controls (unstimulated cells = maximal effect, HGF only = nil)

Row | Structure (SMILES) | Assay Value
61 | COc1cc(CNc2ccc(C)c(Cl)c2)cc(Cl)c1OC [Compound A-26] | <5%
62 | COc1cc(CNc2ccc(C)c(Cl)c2)cc(I)c1OC [Compound A-20] | 81.9%

Same assay, conditions: Table 4; 10 μM compound, then HGF, 24 hours; percentage like untreated controls (unstimulated cells = maximal effect, HGF only = nil)

Row | Structure (SMILES) | Assay Value
63 | Cc1nc(NC(=O)c2ccc(N3CCOCC3)c([N+](=O)[O-])c2)ccc1I [Compound B-13] | 29.4%

Same assay, conditions: Table 5; 10 μM compound, then HGF, 24 hours; percentage like untreated controls (unstimulated cells = maximal effect, HGF only = nil)

Row | Structure (SMILES) | Assay Value
64 | Cc1cc(NC(=O)c2cccc([N+](=O)[O-])c2)ccc1O [Compound B-14] | 34.6%

Same assay, conditions: Table 6; 10 μM compound, then HGF, 24 hours; percentage like untreated controls (unstimulated cells = maximal effect, HGF only = nil)

Row | Structure (SMILES) | Assay Value
65 | Cc1c(C(=O)OC2CCCC2C)[nH]c2c1C(=O)CC(c1cccs1)C2 (centres unmarked) [Compound C-12] | <5%
